Assay results as given in article PMC12526218, “Design, Synthesis and Herbicidal Activity of 1,2,4-Oxadiazole Compounds as Novel Light-Dependent Protochlorophyllide Oxidoreductase Inhibitors” (Molecules, 2025).

What follows are molecules tested against Light-dependent protochlorophyllide oxidoreductase (AtLPOR) (assay: Plant LPOR ELISA kit on Arabidopsis leaf extract, IC50).
Format: biochemical, Arabidopsis thaliana
`c1ccc(COCc2nc(-c3ccc(OCc4ccccc4)cc3)no2)cc1` [5q, 5-((benzyloxy)methyl)-3-(4-(benzyloxy)phenyl)-1,2,4-oxadiazole] was tested, and the IC50 was 17.6 µM. `O=[N+]([O-])c1cccc(-c2noc(COCc3ccccc3)n2)c1` [5k, 5-((benzyloxy)methyl)-3-(3-nitrophenyl)-1,2,4-oxadiazole] showed an IC50 of 83.6 µM. `O=[N+]([O-])c1ccc(-c2noc(COCc3ccccc3)n2)cc1` [5j, 5-((benzyloxy)methyl)-3-(4-nitrophenyl)-1,2,4-oxadiazole] showed an IC50 of 111 µM.
